Experimental data as given in patent publication US9765105B2, “Macrolide compound” (Pulike Biological Engineering, Inc., priority 2013, dated 2017).

What was measured:
Experiment in all cases: in vitro susceptibility, MIC by mini broth dilution
Assay type in all cases: cell-based
[1] = tested on: Staphylococcus aureus CVCC26003; conditions: strain CVCC26003
Procedure, shortened: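 S. aureus CVCC26003 was revived and subcultured twice, 20 h each at 35° C, on solid medium, then diluted 1:200 in CAMHB liquid medium. Compounds received an 11-step two-fold DMSO dilution in parallel duplicate rows. MIC was read by mini broth dilution per NCCLS guidance.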

[2] = tested on: Actinobacillus pleuropneumoniae CVCC262; conditions: strain CVCC262
Procedure, shortened: (§1)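 Broth microdilution MIC, NCCLS method: 11-point two-fold DMSO compound series, duplicate rows, well 12 as control. Inoculum from 20 h, 35° C plate cultures, diluted 1:200 in broth.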

Haemophilus parasuis = tested on: Haemophilus parasuis
Procedure, shortened: as §1

[3] = tested on: Streptococcus equines CVCC556; conditions: strain CVCC556
Procedure, shortened: as §1

[4] = tested on: Pasteurella multocida CVCC399; conditions: strain CVCC399
Procedure, shortened: as §1

| Compound | MIC values, Staphylococcus aureus CVCC26003 [1] [ug/mi] | MIC values, Actinobacillus pleuropneumoniae CVCC262 [2] [ug/mi] | MIC values, Haemophilus parasuis (Haemophilus parasuis) [ug/mi] | MIC values, Streptococcus equines CVCC556 [3] [ug/mi] | MIC values, Pasteurella multocida CVCC399 [4] [ug/mi] |
| --- | --- | --- | --- | --- | --- |
| CC[C@H]1OC(=O)[C@H](C)[C@@H](O[C@H]2C[C@@](C)(OC)[C@](O)(CNCCc3ccncc3)[C@H](C)O2)[C@H](C)[C@@H](O[C@@H]2O[C@H](C)C[C@H](N(C)C)[C@H]2O)[C@](C)(O)C[C@@H](C)NC[C@H](C)[C@@H](O)[C@]1(C)O [syzx-91, (2R,3S,4R,5S,8R,10R,11R,12S,13S,14R)-13-[(2,6-dideoxy-3-C-methyl-3-O-methyl-4-C-[(2-pyridin-4-yl-ethylamino)-methyl]-α-L-ribopyranosyl)oxy]-2-ethyl-3,4,10-trihydroxy-3,5,8,10,12,14-hexamethyl-11-[[3,4,6-trideoxy-3-(dimethylamino)-β-D-xylo-hexopyranosy]oxy]-1-oxa-7-azacyclopentadecan-15-one] | 4 | 2 | 2 | 1 | 2 |
| CC[C@H]1OC(=O)[C@H](C)[C@@H](O[C@H]2C[C@@](C)(OC)[C@](O)(CNCc3ccccc3F)[C@H](C)O2)[C@H](C)[C@@H](O[C@@H]2O[C@H](C)C[C@H](N(C)C)[C@H]2O)[C@](C)(O)C[C@@H](C)NC[C@H](C)[C@@H](O)[C@]1(C)O [syzx-92, (2R,3S,4R,5S,8R,10R,11R,12S,13S,14R)-13-[(2,6-dideoxy-3-C-methyl-3-O-methyl-4-C-[(2-fluorobenzyl-amino)-methyl]-α-L-ribopyranosyl)oxy]-2-ethyl-3,4,10-trihydroxy-3,5,10,12,14-hexamethyl-11-[[3,4,6-trideoxy-3-(dimethylamino)-β-D-xylo-hexopyranosy]oxy]-1-oxa-7-azacyclopentadecan-15-one] | 1 | 0.5 | 0.5 | 0.25 | 2 |
| CC[C@H]1OC(=O)[C@H](C)[C@@H](O[C@H]2C[C@@](C)(OC)[C@](O)(CNCC3CCNCC3)[C@H](C)O2)[C@H](C)[C@@H](O[C@@H]2O[C@H](C)C[C@H](N(C)C)[C@H]2O)[C@](C)(O)C[C@@H](C)NC[C@H](C)[C@@H](O)[C@]1(C)O [syzx-93] | 32 | 16 | 8 | 1 | 64 |
| CC[C@H]1OC(=O)[C@H](C)[C@@H](O[C@H]2C[C@@](C)(OC)[C@](O)(CNc3cc(Cl)ccc3C)[C@H](C)O2)[C@H](C)[C@@H](O[C@@H]2O[C@H](C)C[C@H](N(C)C)[C@H]2O)[C@](C)(O)C[C@@H](C)NC[C@H](C)[C@@H](O)[C@]1(C)O [syzx-94, (2R,3S,4R,5S,8R,10R,11R,12S,13S,14R)-13-[(2,6-dideoxy-3-C-methyl-3-O-methyl-4-C-[(5-chloro-o-methylphenyl-amino)-methyl]-α-L-ribopyranosyl)oxy]-2-ethyl-3,4,10-trihydroxy-3,5,8,10,12,14-hexamethyl-11-[[3,4,6-trideoxy-3-(dimethylamino)-β-D-xylo-hexopyranosy]oxy]-1-oxa-7-azacyclopentadecan-15-one] | 1 | 0.5 | 0.5 | 0.25 | 2 |
| CC[C@H]1OC(=O)[C@H](C)[C@@H](O[C@H]2C[C@@](C)(OC)[C@](O)(CNc3ccccc3F)[C@H](C)O2)[C@H](C)[C@@H](O[C@@H]2O[C@H](C)C[C@H](N(C)C)[C@H]2O)[C@](C)(O)C[C@@H](C)NC[C@H](C)[C@@H](O)[C@]1(C)O [syzx-95, (2R,3S,4R,5S,8R,10R,11R,12S,13S,14R)-13-[(2,6-dideoxy-3-C-methyl-3-O-methyl-4-C-[(2-fluoro-phenyl-amino)-methyl]-α-L-ribopyranosyl)oxy]-2-ethyl-3,4,10-trihydroxy-3,5,8,10,12,14-hexamethyl-11-[[3,4,6-trideoxy-3-(dimethylamino)-β-D-xylo-hexopyranosy]oxy]-1-oxa-7-azacyclopentadecan-15-one] | 2 | 2 | 2 | 0.5 | 2 |
| CCC1OC(=O)C(C)C(OC2CC(C)(OC)C(O)(CNc3cc(C)ccc3F)C(C)O2)C(C)C(OC2OC(C)CC(N(C)C)C2O)C(C)(O)CC(C)NCC(C)C(O)C1(C)O [syzx-96, (2R,3S,4R,5S,8R,10R,11R,12S,13S,14R)-13-[(2,6-dideoxy-3-C-methyl-3-O-methyl-4-C-[(2-fluoro-5-methylphenyl-amino)-methyl]-α-L-ribopyranosyl)oxy]-2-ethyl-3,4,10-trihydroxy-3,5,8,10,12,14-hexamethyl-11-[[3,4,6-trideoxy-3-(dimethylamino)-β-D-xylo-hexopyranosy]oxy]-1-oxa-7-azacyclopentadecan-15-one] | 1 | 0.5 | 0.5 | 0.25 | 2 |
| CC[C@H]1OC(=O)[C@H](C)[C@@H](O[C@H]2C[C@@](C)(OC)[C@](O)(CNc3ccc(Cl)cc3C)[C@H](C)O2)[C@H](C)[C@@H](O[C@@H]2O[C@H](C)C[C@H](N(C)C)[C@H]2O)[C@](C)(O)C[C@@H](C)NC[C@H](C)[C@@H](O)[C@]1(C)O [syzx-97, (2R,3S,4R,5S,8R,10R,11R,12S,13S,14R)-13-[(2,6-dideoxy-3-C-methyl-3-O-methyl-4-C-[(2-methyl-4-chloro-phenyl-amino)-methyl]-α-L-ribopyranosyl)oxy]-2-ethyl-3,4,10-trihydroxy-3,5,8,10,12,14-hexamethyl-11-[[3,4,6-trideoxy-3-(dimethylamino)-β-D-xylo-hexopyranosy]oxy]-1-oxa-7-azacyclopentadecan-15-one] | 1 | 128 | 1 | 0.5 | 4 |
| CCCCN(C)C[C@]1(O)[C@H](C)O[C@@H](O[C@H]2[C@H](C)[C@@H](O[C@@H]3O[C@H](C)C[C@H](N(C)C)[C@H]3O)[C@](C)(O)C[C@@H](C)NC[C@H](C)[C@@H](O)[C@](C)(O)[C@@H](CC)OC(=O)[C@@H]2C)C[C@@]1(C)OC [syzx-98, (2R,3S,4R,5S,8R,10R,11R,12S,13S,14R)-13-[(2,6-dideoxy-3-C-methyl-3-O-methyl-4-C-[(N-methyl-butyl-amino)-methyl]-α-L-ribopyranosyl)oxy]-2-ethyl-3,4,10-trihydroxy-3,5,8,10,12,14-hexamethyl-11-[[3,4,6-trideoxy-3-(dimethylamino)-β-D-xylo-hexopyranosy]oxy]-1-oxa-7-azacyclopentadecan-15-one] | 1 | 0.5 | 0.5 | 0.25 | 2 |
| CC[C@H]1OC(=O)[C@H](C)[C@@H](O[C@H]2C[C@@](C)(OC)[C@](O)(CNc3ccc4ncccc4c3)[C@H](C)O2)[C@H](C)[C@@H](O[C@@H]2O[C@H](C)C[C@H](N(C)C)[C@H]2O)[C@](C)(O)C[C@@H](C)NC[C@H](C)[C@@H](O)[C@]1(C)O [syzx-99, (2R,3S,4R,5S,8R,10R,11R,12S,13S,14R)-13-[(2,6-dideoxy-3-C-methyl-3-O-methyl-4-C-[(quinolin-6-yl-amino)-methyl]-α-L-ribopyranosyl)oxy]-2-ethyl-3,4,10-trihydroxy-3,5,8,10,12,14-hexamethyl-11-[[3,4,6-trideoxy-3-(dimethylamino)-β-D-xylo-hexopyranosy]oxy]-1-oxo-7-azacyclopentadecan-15-one] | 4 | 128 | 4 | 2 | 8 |
